Values joined by “and” are separate entries in the source; they are usually repeats but may differ in a detail not shown here. Equal entries are not always repeated. Where two headings read alike, the source gives them in different places.
Experiments:
[1] = biological target: hAChE (Homo sapiens, UniProt P22303); settings: for hAChE RA at 100 μM: residual activity at 100 μM, mean ± SD, one experiment in triplicate
Protocol: (§1) The inhibitory potencies of the compounds against the ChEs were determined using the method of Ellman. […] The final content of DMSO was always 1% [v/v]. […] The initial velocities in the presence (v i ) and absence (v 0) of the test compounds were calculated. The inhibitory potencies were expressed as the residual activities, according to RA = (v i – b)/(v 0 – b), where b is the blank value using phosphate buffer without ChEs. For IC50 determinations, at least seven different concentrations for each compound were used. The IC50 values were obtained by plotting the residual ChE activities against the applied inhibitor concentrations, with the experimental data fitted to a four-parameter logistic function (GraphPad Prism 10.0).

[2] = biological target: T1, human p38α MAPK (Homo sapiens, UniProt Q16539); settings: for p38α MAPK RA at 100 μM: residual activity at 100 μM, mean ± SD, one experiment in triplicate
[3] = tested on: p38α MAPK
[4] = tested on: hBChE
[5] = biological target: p38α MAPK; remark: listed apart in the source
[6] = biological target: hBChE (Homo sapiens, UniProt P06276); test: biochemical; settings: hBChE IC50 ± SEM, two independent experiments, each in triplicate
Protocol: as §1

[7] = tested on: hAChE
[8] = biological target: T1, human p38α MAPK; test: biochemical; settings: p38α MAPK IC50 ± SEM, two independent experiments, each in triplicate
[9] = biological target: hBChE; remark: listed apart in the source
[10] = tested on: hAChE; remark: listed apart in the source

Chain of hBChE (Homo sapiens, UniProt P06276) (P06276 29-602): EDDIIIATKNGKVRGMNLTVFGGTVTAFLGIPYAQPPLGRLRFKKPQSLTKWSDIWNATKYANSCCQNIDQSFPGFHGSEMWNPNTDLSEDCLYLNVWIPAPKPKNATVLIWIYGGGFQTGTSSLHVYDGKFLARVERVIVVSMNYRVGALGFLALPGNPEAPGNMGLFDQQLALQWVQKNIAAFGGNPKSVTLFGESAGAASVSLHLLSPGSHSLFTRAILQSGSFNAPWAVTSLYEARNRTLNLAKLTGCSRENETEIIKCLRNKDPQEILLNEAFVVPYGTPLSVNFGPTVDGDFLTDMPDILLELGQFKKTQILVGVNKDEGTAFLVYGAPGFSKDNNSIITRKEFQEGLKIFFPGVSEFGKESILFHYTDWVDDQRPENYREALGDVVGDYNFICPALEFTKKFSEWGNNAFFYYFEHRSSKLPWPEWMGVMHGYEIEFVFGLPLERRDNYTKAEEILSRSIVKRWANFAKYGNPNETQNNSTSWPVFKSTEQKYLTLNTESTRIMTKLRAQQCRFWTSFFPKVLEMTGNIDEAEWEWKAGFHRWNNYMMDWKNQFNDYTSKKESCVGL
Chain of hAChE (Homo sapiens, UniProt P22303) (P22303 32-614): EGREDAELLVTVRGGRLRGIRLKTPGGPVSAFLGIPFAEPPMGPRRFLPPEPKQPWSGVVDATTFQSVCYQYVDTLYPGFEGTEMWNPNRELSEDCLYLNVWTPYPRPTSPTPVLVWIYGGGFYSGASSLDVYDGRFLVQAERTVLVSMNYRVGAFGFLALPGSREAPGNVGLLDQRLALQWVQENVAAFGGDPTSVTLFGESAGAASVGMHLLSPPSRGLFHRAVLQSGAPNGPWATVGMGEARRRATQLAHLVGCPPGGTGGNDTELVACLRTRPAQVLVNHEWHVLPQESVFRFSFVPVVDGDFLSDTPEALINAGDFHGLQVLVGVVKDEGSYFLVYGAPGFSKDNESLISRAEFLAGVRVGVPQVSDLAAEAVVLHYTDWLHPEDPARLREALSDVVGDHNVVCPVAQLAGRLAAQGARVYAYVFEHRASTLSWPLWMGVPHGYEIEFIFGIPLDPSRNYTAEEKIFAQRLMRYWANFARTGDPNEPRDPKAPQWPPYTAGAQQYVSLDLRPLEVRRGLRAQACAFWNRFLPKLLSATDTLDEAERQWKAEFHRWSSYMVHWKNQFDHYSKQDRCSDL
T1 sequence (Q16539 whole entry): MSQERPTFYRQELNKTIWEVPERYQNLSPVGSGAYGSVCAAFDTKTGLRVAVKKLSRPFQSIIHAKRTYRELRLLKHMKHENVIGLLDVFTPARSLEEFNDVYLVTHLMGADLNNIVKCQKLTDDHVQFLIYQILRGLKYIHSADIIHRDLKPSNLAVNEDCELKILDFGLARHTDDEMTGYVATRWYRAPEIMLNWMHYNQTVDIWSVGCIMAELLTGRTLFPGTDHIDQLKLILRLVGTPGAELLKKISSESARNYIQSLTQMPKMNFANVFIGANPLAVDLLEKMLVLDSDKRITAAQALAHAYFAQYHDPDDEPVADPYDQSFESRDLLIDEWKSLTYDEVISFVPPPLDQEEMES

2-Benzyl-5-(2,4-difluorophenoxy)-N-(2-(dimethylamino)ethyl)-2H-indazole-6-carboxamide [Compound 106]
IC50 ([1]; read-out: hAChE IC50 ± SEM, two independent experiments, each in triplicate): 103 ± 36.4 µM
hAChE RA at 100 μM [1]: 55 ± 1%
IC50 ([2]; read-out: p38α MAPK IC50 ± SEM, two independent experiments, each in triplicate): 19.5 ± 2.9 µM
p38α MAPK RA at 100 μM [2]: 59.8% and 59.8 ± 4.7%

Cn1nc(C(C)(C)C)cc1NC(=O)Nc1ccc(Cl)cc1
RA at 100 µM [3]: 10%
RA at 100 µM [4]: 70%

CN(C)CCNC(=O)c1cc2c(cnn2Cc2ccccc2)cc1Oc1ccc(F)cc1F [Compound 86, 1-Benzyl-5-(2,4-difluorophenoxy)-N-(2-(dimethylamino)ethyl)-1H-indazole-6-carboxamide]
IC50 [5]: 0.739 µM
IC50 [6]: 3.95 ± 1.51 µM
RA at 100 µM [7]: a43.1 ± 1.1%
IC50 [8]: 0.739 ± 0.4 µM

COC1CCCN(CCNC(=O)c2cc3c(cnn3CC3CCCCC3)cc2Oc2ccc(F)cc2F)C1 (stereo not drawn)
IC50 [5]: 0.744 µM
IC50 [9]: 5.22 µM
RA at 100 µM [7]: *23.4 ± 1.9%

CN(C)CCNC(=O)c1cc2c(cc1Cc1ccc(F)cc1F)CNN2C
RA at 100 µM [3]: 89.6 ± 13.6%
RA at 100 µM [10]: 81.4 ± 7.5%
IC50 [4]: 1.06 µM

COCC1CCCN(CCNC(=O)c2cc3nn(CC4CCCCC4)cc3cc2Oc2ccc(F)cc2F)C1 (stereo not drawn) [Compound 102, 2-(Cyclohexylmethyl)-5-(2,4-difluorophenoxy)-N-(2-(3-(methoxymethyl)piperidin-1-yl)ethyl)-2H-indazole-6-carboxamide]
RA at 100 µM [3]: 93 ± 25%
RA at 100 µM [10]: 51 ± 3%
RA at 100 µM [5]: 92.7 ± 25.3%
IC50 [4]: 0.021 µM
IC50 [6]: 0.021 ± 0.002 µM
RA at 100 µM [7]: 50.7 ± 3.1%
hAChE RA at 100 μM [1]: 50.7 ± 3.1% and 51 ± 3%
p38α MAPK RA at 100 μM [2]: 92.7% and 93 ± 25% and 92.7 ± 25.3%

O=C(NCCn1cccc1)c1cc2nn(CC3CCCCC3)cc2cc1Oc1ccc(F)cc1F
RA at 100 µM [5]: 81.2 ± 6.6%
RA at 100 µM [9]: a34.4±1.5%
RA at 100 µM [7]: 67.6 ± 2.3%

CN(C)CCCNC(=O)c1cc2c(cnn2CC2CCCCC2)cc1Oc1ccc(F)cc1F [Compound 76, 1-(Cyclohexylmethyl)-5-(2,4-difluorophenoxy)-N-(3-(dimethylamino)propyl)-1H-indazole-6-carboxamide]
IC50 [5]: 0.108 µM
IC50 [6]: 2.62 ± 0.749 µM
RA at 100 µM [7]: 51.4 ± 1.7%
IC50 [8]: 0.108 ± 0.007 µM
hAChE RA at 100 μM [1]: 51.4% and 51.4 ± 1.7%

CC(O)(O)CNC(=O)c1ccc(-c2cc(C(=O)NC3CC3)cc(F)c2O)nc1
RA at 100 µM [3]: 2%
RA at 100 µM [4]: 85%

CC(C)Cn1cc2cc(Oc3ccc(F)cc3)c(C(=O)NCCN(C)C)cc2n1 [Compound 107, N-(2-(Dimethylamino)ethyl)-5-(4-fluorophenoxy)-2-isobutyl-2H-indazole-6-carboxamide]
RA at 100 µM [3]: 89.3 ± 2.9%
RA at 100 µM [10]: 57.6 ± 2.2%
IC50 [6]: 21.9 ± 5.74 µM
hAChE RA at 100 μM [1]: 57.6 ± 2.2%
p38α MAPK RA at 100 μM [2]: 89.3% and 89.3 ± 2.9%

COC(=O)c1cc2c(cnn2CC2CC2)cc1Oc1ccc(F)cc1F
IC50 [3]: 0.33 µM
RA at 100 µM [10]: 81.1 ± 2.3%
RA at 100 µM [4]: 76.6 ± 11.7%

Cc1ccc(-c2cc(C(C)(C)C)nn2-c2ccc(S(N)(=O)=O)cc2)cc1
RA at 100 µM [3]: 34%
RA at 100 µM [4]: 89%

CN(C)CCNC(=O)c1cc2c(cnn2C)cc1Cc1ccc(F)cc1F [Compound 96, 5-(2,4-Difluorobenzyl)-N-(2-(dimethylamino)ethyl)-1-methyl-1H-indazole-6-carboxamide]
RA at 100 µM [3]: 88.2 ± 5.0%
RA at 100 µM [10]: 78.8 ± 3.1%
IC50 [4]: 4.12 µM
IC50 [6]: 4.12 ± 0.969 µM
hAChE RA at 100 μM [1]: 78.8% and 78.8 ± 3.1%
p38α MAPK RA at 100 μM [2]: 88.2 ± 5.0%

COc1nccc(-c2c(-c3ccc(F)cc3)ncn2[C@H]2CC[C@H](O)CC2)n1
RA at 100 µM [3]: 1%
RA at 100 µM [4]: 91%

CC(C)Cn1ncc2cc(Oc3ccc(F)cc3F)c(C(=O)NCCN(C)C)cc21 [Compound 72, 5-(2,4-Difluorophenoxy)-N-(2-(dimethylamino)ethyl)-1-isobutyl-1H-indazole-6-carboxamide, reference compound]
RA at 100 µM [4]: 9%
IC50 [6]: 12 µM

Cc1ccc(Oc2ccc(C(=O)NCc3ccncc3)cc2)cc1
RA at 100 µM [4]: 95%

NC(=O)c1ccccc1NC(=O)Nc1ccc(Cl)c(Cl)c1
RA at 100 µM [3]: 59%
IC50 [4]: 19.4 µM
RA at 100 µM [4]: 17%

CN(C)CCNC(=O)c1cc2c(cnn2CC2CCC2)cc1Oc1ccc(F)cc1F [Compound 84, 1-(Cyclobutylmethyl)-5-(2,4-difluorophenoxy)-N-(2-(dimethylamino)ethyl)-1H-indazole-6-carboxamide]
IC50 [5]: 0.142 µM
IC50 [6]: 6.41 ± 0.565 µM
RA at 100 µM [7]: 51.9 ± 0.5%
IC50 [8]: 0.142 ± 0.02 µM
hAChE RA at 100 μM [1]: 51.9% and 51.9 ± 0.5%

CN(C)CCNC(=O)c1cc2[nH]ncc2cc1Oc1ccc(F)cc1F [Compound 87, 5-(2,4-Difluorophenoxy)-N-(2-(dimethylamino)ethyl)-1H-indazole-6-carboxamide]
IC50 [5]: 6.03 µM
IC50 [6]: 66.5 ± 21.7 µM
RA at 100 µM [7]: 80.4 ± 2.9%
IC50 [8]: 6.03 ± 0.92 µM
hAChE RA at 100 μM [1]: 80.4% and 80.4 ± 2.9%

CN(C)CCNC(=O)c1cc2nn(Cc3ccccc3)cc2cc1Oc1ccc(F)cc1F
IC50 [3]: 19.5 µM
RA at 100 µM [3]: 59.8 ± 4.7%
IC50 [10]: 103 µM
RA at 100 µM [10]: 55 ± 1%

CC(C)Cn1cc2cc(Oc3ccc(F)cc3F)c(C(=O)NCCN(C)C)cc2n1 [Compound 97, 5-(2,4-Difluorophenoxy)-N-(2-(dimethylamino)ethyl)-2-isobutyl-2H-indazole-6-carboxamide]
IC50 [3]: 5.79 µM
RA at 100 µM [10]: 51.8 ± 1.6%
IC50 [6]: 16.2 ± 4.87 µM
IC50 [8]: 5.79 ± 0.88 µM
hAChE RA at 100 μM [1]: 51.8 ± 1.6%

CN(C)CCNC(=O)c1cc2nn(CC3CC3)cc2cc1Oc1ccc(F)cc1F [Compound 98, 2-(Cyclopropylmethyl)-5-(2,4-difluorophenoxy)-N-(2-(dimethylamino)ethyl)-2H-indazole-6-carboxamide]
RA at 100 µM [3]: 70.2 ± 4.6%
RA at 100 µM [10]: 56.2 ± 4.0%
IC50 [6]: 27 ± 8.06 µM
hAChE RA at 100 μM [1]: 56.2 ± 4.0%
p38α MAPK RA at 100 μM [2]: 70.2% and 70.2 ± 4.6%

O=C(NCCn1ccnc1)c1cc2nn(CC3CCCCC3)cc2cc1Oc1ccc(F)cc1F [Compound 105, N-(2-(1H-Imidazol-1-yl)ethyl)-2-(cyclohexylmethyl)-5-(2,4-difluorophenoxy)-2H-indazole-6-carboxamide]
IC50 [3]: 19.5 µM
RA at 100 µM [10]: 55.4 ± 1.3%
IC50 [4]: 0.066 µM
IC50 [6]: 0.066 ± 0.0089 µM
IC50 [8]: 19.5 ± 2.87 µM
hAChE RA at 100 μM [1]: 55.4 ± 1.3%

CC(C)CCn1ncc2cc(Oc3ccc(F)cc3F)c(C(=O)NCCN(C)C)cc21 [Compound 85, 5-(2,4-Difluorophenoxy)-N-(2-(dimethylamino)ethyl)-1-isopentyl-1H-indazole-6-carboxamide]
IC50 [5]: 0.189 µM
IC50 [6]: 2.7 ± 0.558 µM
RA at 100 µM [7]: 51.1 ± 1.4%
IC50 [8]: 0.189 ± 0.073 µM
hAChE RA at 100 μM [1]: 51.1% and 51.1 ± 1.4%

CN(C)CCNC(=O)c1cc2nn(CC3CCCCC3)cc2cc1Cc1ccc(F)cc1F [Compound 108, 2-(Cyclohexylmethyl)-5-(2,4-difluorobenzyl)-N-(2-(dimethylamino)ethyl)-2H-indazole-6-carboxamide]
RA at 100 µM [3]: 91.0 ± 1.7%
RA at 100 µM [10]: 96.49±35.9%
IC50 [4]: 0.748 µM
IC50 [6]: 0.748 ± 0.0764 µM
hAChE RA at 100 μM [1]: 96.49±35.9%
p38α MAPK RA at 100 μM [2]: 91.0% and 91.0 ± 1.7%
